Test results reported in PMC9250534, “Synthesis and direct assay of large macrocycle diversities by combinatorial late-stage modification at picomole scale” (Nature Communications, 2022).
Numbered stars: 1 amine (or outer) side, 2 acyl side, 3 side chain; on linkers, the order of the positions; unused ones are H or OH. Bridge positions count the residues as written; N and C are the ends. Square brackets hold non-standard residues; d marks the D form. Peptide text beside a SMILES is read from it. * marks the point of attachment. 2Thenoyl(5-Cl) = O=C(c1ccc(Cl)s1)*; Benzoyl(4-Cl) = O=C(c1ccc(Cl)cc1)*; Cysteamide = C(CS[*:3])N[*:1]; X1 = O=C(/C=C/c1ccccc1)*; Api = NC1(C(=O)O)CCNCC1; Mpa = O=C(O)CCS

Target: MDM2 (Homo sapiens, UniProt Q00987)
Test: MDM2 binding screen: displacement of fluorescent p53 peptide probe FP53 (fluorescence polarization)
Details: for fraction fluorescent probe displaced, Screen: initial screen; for fraction fluorescent probe displaced, Screen / fraction fluorescent probe displaced, Replicate: crude macrocycle reactions
Outline: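 Macrocycle reaction products at a final 10 µM were tested for displacement of a p53-based fluorescent peptide from human MDM2. Fluorescence anisotropy (ex 485/em 535 nm) was read once per macrocycle at 25 °C.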

[1] = crude reaction of macrocycle scaffold with Acid 14, (initial screen)
[2] = crude reaction of macrocycle scaffold with Acid 14, replicate

MDM2, sequence (Q00987 whole entry): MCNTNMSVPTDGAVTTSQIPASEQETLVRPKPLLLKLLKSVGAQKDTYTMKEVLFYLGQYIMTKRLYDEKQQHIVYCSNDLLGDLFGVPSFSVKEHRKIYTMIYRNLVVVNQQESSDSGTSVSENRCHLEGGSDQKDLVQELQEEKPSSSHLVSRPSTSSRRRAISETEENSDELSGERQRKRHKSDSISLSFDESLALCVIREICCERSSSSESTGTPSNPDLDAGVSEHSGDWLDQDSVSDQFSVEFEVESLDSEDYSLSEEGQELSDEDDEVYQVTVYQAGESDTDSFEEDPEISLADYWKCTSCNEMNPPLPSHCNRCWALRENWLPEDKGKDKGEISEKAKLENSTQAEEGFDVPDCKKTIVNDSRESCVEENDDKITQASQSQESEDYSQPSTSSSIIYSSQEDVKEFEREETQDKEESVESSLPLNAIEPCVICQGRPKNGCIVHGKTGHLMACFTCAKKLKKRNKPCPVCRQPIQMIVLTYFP

O=C1CCSSCCNC(=O)[C@H](Cc2ccccc2)NC(=O)[C@H]2CCCN(C2)C(=O)C2(CCN(C(=O)c3ccc(Cl)cc3)CC2)N1 [X D6 B4 F + Acid 25]
fraction fluorescent probe displaced (crude reaction of macrocycle scaffold with Acid 25, (initial screen)): 0.09
fraction fluorescent probe displaced (crude reaction of macrocycle scaffold with Acid 25, replicate): 0.15

O=C1CCSSCCNC(=O)[C@H](Cc2c[nH]c3ccccc23)NC(=O)[C@H]2CCCN(C2)C(=O)C2(CCN(C(=O)c3ccc(Cl)s3)CC2)N1 [X D6 B4 W Acid 14]
fraction fluorescent probe displaced, Screen (Acid 14): 0.17
fraction fluorescent probe displaced, Replicate (Acid 14, replicate): 0.25

O=C1CCSSCCNC(=O)C(Cc2c[nH]c3ccccc23)NC(=O)C2CCCN(C2)C(=O)C2(CCN(C(=O)C=Cc3ccccc3)CC2)N1 (centres unmarked) [X D6 B4 W Acid 91]
fraction fluorescent probe displaced, Screen (Acid 91): 0.11
fraction fluorescent probe displaced, Replicate (Acid 91, replicate): 0.0168

O=C1CCSSCCNC(=O)[C@H](Cc2ccccc2)NC(=O)c2cccc(c2)CNC(=O)C2(CCN(C(=O)/C=C/c3ccccc3)CC2)N1 [X D6 B5 F Acid 91]
fraction fluorescent probe displaced, Screen (Acid 91): -0.05
fraction fluorescent probe displaced, Replicate (Acid 91, replicate): -0.0333

O=C1CCSSCCNC(=O)C(Cc2c[nH]c3ccccc23)NC(=O)c2cccc(c2)CNC(=O)C2(CCN(C(=O)c3ccc(Cl)s3)CC2)N1 (centres unmarked) [X D6 B5 W Acid 14]
fraction fluorescent probe displaced, Screen (Acid 14): 0.23
fraction fluorescent probe displaced, Replicate (Acid 14, replicate): 0.25

O=C1CCSSCCNC(=O)[C@H](Cc2c[nH]c3ccccc23)NC(=O)c2cccc(c2)CNC(=O)C2(CCN(C(=O)c3ccc(Cl)cc3)CC2)N1 [X D6 B5 W Acid 25]
fraction fluorescent probe displaced, Screen (Acid 25): 0.25
fraction fluorescent probe displaced, Replicate (Acid 25, replicate): 0.22

O=C1CCSSCCNC(=O)[C@@H]2CCCN2C(=O)[C@H](Cc2ccccc2)NC(=O)C2(CCN(C(=O)c3ccc(Cl)s3)CC2)N1 [X D6 F B1 Acid 14] ([Mpa][Api](2Thenoyl(5-Cl))FP-Cysteamide; disulfide 1-C)
fraction fluorescent probe displaced, Screen (Acid 14): 0.053
fraction fluorescent probe displaced, Replicate (Acid 14, replicate): 0.07

O=C1CCSSCCNC(=O)[C@@H]2CCCN2C(=O)[C@H](Cc2ccccc2)NC(=O)C2(CCN(C(=O)c3ccc(Cl)cc3)CC2)N1 [X D6 F B1 Acid 25] ([Mpa][Api](Benzoyl(4-Cl))FP-Cysteamide; disulfide 1-C)
fraction fluorescent probe displaced, Screen (Acid 25): 0.15
fraction fluorescent probe displaced, Replicate (Acid 25, replicate): 0.22

O=C1CCSSCCNC(=O)[C@@H]2CCCN2C(=O)[C@H](Cc2ccccc2)NC(=O)C2(CCN(C(=O)/C=C/c3ccccc3)CC2)N1 [X D6 F B1 Acid 91] ([Mpa][Api](X1)FP-Cysteamide; disulfide 1-C)
fraction fluorescent probe displaced, Screen (Acid 91): -0.05
fraction fluorescent probe displaced, Replicate (Acid 91, replicate): -0.08

O=C1CCNC(=O)[C@H](Cc2ccccc2)NC(=O)C2(CCN(C(=O)c3ccc(Cl)s3)CC2)NC(=O)CCSSCCN1 [X D6 F B2 Acid 14]
fraction fluorescent probe displaced, Screen (Acid 14): 0.0241
fraction fluorescent probe displaced, Replicate (Acid 14, replicate): 0.07

O=C1CCNC(=O)[C@H](Cc2ccccc2)NC(=O)C2(CCN(C(=O)/C=C/c3ccccc3)CC2)NC(=O)CCSSCCN1 [X D6 F B2 Acid 91]
fraction fluorescent probe displaced, Screen (Acid 91): 0.14
fraction fluorescent probe displaced, Replicate (Acid 91, replicate): 0.04

O=C1CCSSCCNC(=O)[C@H]2CCCN(C2)C(=O)[C@H](Cc2ccccc2)NC(=O)C2(CCN(C(=O)/C=C/c3ccccc3)CC2)N1 [X D6 F B4 + Acid 91]
fraction fluorescent probe displaced (crude reaction of macrocycle scaffold with Acid 91, (initial screen)): 0.03
fraction fluorescent probe displaced (crude reaction of macrocycle scaffold with Acid 91, replicate): -0.00827

O=C1CCSSCCNC(=O)c2cccc(c2)CNC(=O)[C@H](Cc2ccccc2)NC(=O)C2(CCN(C(=O)c3ccc(Cl)s3)CC2)N1 [X D6 F B5 Acid 14]
fraction fluorescent probe displaced, Screen (Acid 14): -0.0337
fraction fluorescent probe displaced, Replicate (Acid 14, replicate): 0.12

O=C1CCSSCCNC(=O)c2cccc(c2)CNC(=O)C(Cc2ccccc2)NC(=O)C2(CCN(C(=O)C=Cc3ccccc3)CC2)N1 (centres unmarked) [X D6 F B5 Acid 91]
fraction fluorescent probe displaced, Screen (Acid 91): -0.05
fraction fluorescent probe displaced, Replicate (Acid 91, replicate): -0.00827

O=C1CCSSCCNC(=O)[C@@H]2CCCN2C(=O)[C@H](Cc2c[nH]c3ccccc23)NC(=O)C2(CCN(C(=O)c3ccc(Cl)s3)CC2)N1 [X D6 W B1 Acid 14] ([Mpa][Api](2Thenoyl(5-Cl))WP-Cysteamide; disulfide 1-C)
fraction fluorescent probe displaced, Screen (Acid 14): 0.11
fraction fluorescent probe displaced, Replicate (Acid 14, replicate): 0.07

O=C1CCSSCCNC(=O)[C@@H]2CCCN2C(=O)[C@H](Cc2c[nH]c3ccccc23)NC(=O)C2(CCN(C(=O)c3ccc(Cl)cc3)CC2)N1 [X D6 W B1 Acid 25] ([Mpa][Api](Benzoyl(4-Cl))WP-Cysteamide; disulfide 1-C)
fraction fluorescent probe displaced, Screen (Acid 25): 0.25
fraction fluorescent probe displaced, Replicate (Acid 25, replicate): 0.20

O=C1CCSSCCNC(=O)[C@@H]2CCCN2C(=O)[C@H](Cc2c[nH]c3ccccc23)NC(=O)C2(CCN(C(=O)/C=C/c3ccccc3)CC2)N1 [X D6 W B1 Acid 91] ([Mpa][Api](X1)WP-Cysteamide; disulfide 1-C)
fraction fluorescent probe displaced, Screen (Acid 91): 0.08
fraction fluorescent probe displaced, Replicate (Acid 91, replicate): 0.04

O=C1CCNC(=O)[C@H](Cc2c[nH]c3ccccc23)NC(=O)C2(CCN(C(=O)c3ccc(Cl)cc3)CC2)NC(=O)CCSSCCN1 [X D6 W B2 Acid 25]
fraction fluorescent probe displaced, Screen (Acid 25): 0.09
fraction fluorescent probe displaced, Replicate (Acid 25, replicate): 0.10

O=C1CCNC(=O)[C@H](Cc2c[nH]c3ccccc23)NC(=O)C2(CCN(C(=O)/C=C/c3ccccc3)CC2)NC(=O)CCSSCCN1 [X D6 W B2 Acid 91]
fraction fluorescent probe displaced, Screen (Acid 91): 0.14
fraction fluorescent probe displaced, Replicate (Acid 91, replicate): 0.07

O=C1CCSSCCNC(=O)[C@H]2CCCN(C2)C(=O)[C@H](Cc2c[nH]c3ccccc23)NC(=O)C2(CCN(C(=O)c3ccc(Cl)cc3)CC2)N1 [X D6 W B4 Acid 25]
fraction fluorescent probe displaced, Screen (Acid 25): 0.28
fraction fluorescent probe displaced, Replicate (Acid 25, replicate): 0.22

O=C1CCSSCCNC(=O)[C@H]2CCCN(C2)C(=O)[C@H](Cc2c[nH]c3ccccc23)NC(=O)C2(CCN(C(=O)/C=C/c3ccccc3)CC2)N1 [X D6 W B4 Acid 91]
fraction fluorescent probe displaced, Screen (Acid 91): 0.14
fraction fluorescent probe displaced, Replicate (Acid 91, replicate): 0.07

O=C1CCSSCCNC(=O)c2cccc(c2)CNC(=O)C(Cc2c[nH]c3ccccc23)NC(=O)C2(CCN(C(=O)c3ccc(Cl)s3)CC2)N1 (centres unmarked) [X D6 W B5 Acid 14]
fraction fluorescent probe displaced, Screen (Acid 14): 0.11
fraction fluorescent probe displaced, Replicate (Acid 14, replicate): 0.25

O=C1CCSSCCNC(=O)c2cccc(c2)CNC(=O)[C@H](Cc2c[nH]c3ccccc23)NC(=O)C2(CCN(C(=O)/C=C/c3ccccc3)CC2)N1 [X D6 W B5 Acid 91]
fraction fluorescent probe displaced, Screen (Acid 91): -0.05
fraction fluorescent probe displaced, Replicate (Acid 91, replicate): 0.07

O=C1NCCSSCCC(=O)N2CCN(C(=O)c3ccc(Cl)cc3)CC2C(=O)N2CCCC2C(=O)NC1Cc1ccccc1 (centres unmarked) [X D7 B1 F Acid 25]
fraction fluorescent probe displaced, Screen (Acid 25): 0.0569
fraction fluorescent probe displaced, Replicate (Acid 25, replicate): 0.12

O=C1NCCSSCCC(=O)N2CCN(C(=O)c3ccc(Cl)s3)CC2C(=O)N2CCCC2C(=O)NC1Cc1c[nH]c2ccccc12 (centres unmarked) [X D7 B1 W Acid 14]
fraction fluorescent probe displaced, Screen (Acid 14): -0.00483
fraction fluorescent probe displaced, Replicate (Acid 14, replicate): 0.07

O=C1CCNC(=O)C2CN(C(=O)c3ccc(Cl)s3)CCN2C(=O)CCSSCCNC(=O)C(Cc2c[nH]c3ccccc23)N1 (centres unmarked) [X D7 B2 W Acid 14]
fraction fluorescent probe displaced, Screen (Acid 14): 0.11
fraction fluorescent probe displaced, Replicate (Acid 14, replicate): 0.12

O=C1CCNC(=O)C2CN(C(=O)C=Cc3ccccc3)CCN2C(=O)CCSSCCNC(=O)C(Cc2c[nH]c3ccccc23)N1 (centres unmarked) [X D7 B2 W Acid 91]
fraction fluorescent probe displaced, Screen (Acid 91): 0.11
fraction fluorescent probe displaced, Replicate (Acid 91, replicate): 0.07

O=C1NC(Cc2ccccc2)C(=O)NCCSSCCC(=O)N2CCN(C(=O)c3ccc(Cl)s3)CC2C(=O)N2CCCC1C2 (centres unmarked) [X D7 B4 F + Acid 14]
fraction fluorescent probe displaced [1]: -0.0337
fraction fluorescent probe displaced [2]: 0.07

O=C1NC(Cc2c[nH]c3ccccc23)C(=O)NCCSSCCC(=O)N2CCN(C(=O)C=Cc3ccccc3)CC2C(=O)N2CCCC1C2 (centres unmarked) [X D7 B4 W Acid 91]
fraction fluorescent probe displaced, Screen (Acid 91): 0.08
fraction fluorescent probe displaced, Replicate (Acid 91, replicate): 0.07

O=C1NC(Cc2ccccc2)C(=O)NCCSSCCC(=O)N2CCN(C(=O)c3ccc(Cl)cc3)CC2C(=O)NCc2cccc1c2 (centres unmarked) [X D7 B5 F Acid 25]
fraction fluorescent probe displaced, Screen (Acid 25): -0.04
fraction fluorescent probe displaced, Replicate (Acid 25, replicate): 0.12

O=C1NC(Cc2c[nH]c3ccccc23)C(=O)NCCSSCCC(=O)N2CCN(C(=O)c3ccc(Cl)cc3)CC2C(=O)NCc2cccc1c2 (centres unmarked) [X D7 B5 W Acid 25]
fraction fluorescent probe displaced, Screen (Acid 25): 0.22
fraction fluorescent probe displaced, Replicate (Acid 25, replicate): 0.20

O=C1NC(Cc2ccccc2)C(=O)N2CCCC2C(=O)NCCSSCCC(=O)N2CCN(C(=O)c3ccc(Cl)cc3)CC12 (centres unmarked) [X D7 F B1 Acid 25]
fraction fluorescent probe displaced, Screen (Acid 25): 0.09
fraction fluorescent probe displaced, Replicate (Acid 25, replicate): 0.07

O=C1CCNC(=O)C(Cc2ccccc2)NC(=O)C2CN(C(=O)c3ccc(Cl)cc3)CCN2C(=O)CCSSCCN1 (centres unmarked) [X D7 F B2 Acid 25]
fraction fluorescent probe displaced, Screen (Acid 25): -0.00813
fraction fluorescent probe displaced, Replicate (Acid 25, replicate): 0.07

O=C1NCCSSCCC(=O)N2CCN(C(=O)c3ccc(Cl)s3)CC2C(=O)NC(Cc2ccccc2)C(=O)N2CCCC1C2 (centres unmarked) [X D7 F B4 + Acid 14]
fraction fluorescent probe displaced [1]: 0.0241
fraction fluorescent probe displaced [2]: -0.00432

O=C1NCCSSCCC(=O)N2CCN(C(=O)c3ccc(Cl)cc3)CC2C(=O)NC(Cc2ccccc2)C(=O)NCc2cccc1c2 (centres unmarked) [X D7 F B5 Acid 25]
fraction fluorescent probe displaced, Screen (Acid 25): 0.12
fraction fluorescent probe displaced, Replicate (Acid 25, replicate): 0.43

O=C1NCCSSCCC(=O)N2CCN(C(=O)C=Cc3ccccc3)CC2C(=O)NC(Cc2ccccc2)C(=O)NCc2cccc1c2 (centres unmarked) [X D7 F B5 Acid 91]
fraction fluorescent probe displaced, Screen (Acid 91): 0.0563
fraction fluorescent probe displaced, Replicate (Acid 91, replicate): 0.04

O=C1NC(Cc2c[nH]c3ccccc23)C(=O)N2CCCC2C(=O)NCCSSCCC(=O)N2CCN(C(=O)C=Cc3ccccc3)CC12 (centres unmarked) [X D7 W B1 Acid 91]
fraction fluorescent probe displaced, Screen (Acid 91): -0.0241
fraction fluorescent probe displaced, Replicate (Acid 91, replicate): -0.00827
